The target of data set [1] is T1, Replicative DNA helicase DnaB (Mycobacterium tuberculosis, UniProt P9WMR3).
T1 sequence (P9WMR3 whole entry): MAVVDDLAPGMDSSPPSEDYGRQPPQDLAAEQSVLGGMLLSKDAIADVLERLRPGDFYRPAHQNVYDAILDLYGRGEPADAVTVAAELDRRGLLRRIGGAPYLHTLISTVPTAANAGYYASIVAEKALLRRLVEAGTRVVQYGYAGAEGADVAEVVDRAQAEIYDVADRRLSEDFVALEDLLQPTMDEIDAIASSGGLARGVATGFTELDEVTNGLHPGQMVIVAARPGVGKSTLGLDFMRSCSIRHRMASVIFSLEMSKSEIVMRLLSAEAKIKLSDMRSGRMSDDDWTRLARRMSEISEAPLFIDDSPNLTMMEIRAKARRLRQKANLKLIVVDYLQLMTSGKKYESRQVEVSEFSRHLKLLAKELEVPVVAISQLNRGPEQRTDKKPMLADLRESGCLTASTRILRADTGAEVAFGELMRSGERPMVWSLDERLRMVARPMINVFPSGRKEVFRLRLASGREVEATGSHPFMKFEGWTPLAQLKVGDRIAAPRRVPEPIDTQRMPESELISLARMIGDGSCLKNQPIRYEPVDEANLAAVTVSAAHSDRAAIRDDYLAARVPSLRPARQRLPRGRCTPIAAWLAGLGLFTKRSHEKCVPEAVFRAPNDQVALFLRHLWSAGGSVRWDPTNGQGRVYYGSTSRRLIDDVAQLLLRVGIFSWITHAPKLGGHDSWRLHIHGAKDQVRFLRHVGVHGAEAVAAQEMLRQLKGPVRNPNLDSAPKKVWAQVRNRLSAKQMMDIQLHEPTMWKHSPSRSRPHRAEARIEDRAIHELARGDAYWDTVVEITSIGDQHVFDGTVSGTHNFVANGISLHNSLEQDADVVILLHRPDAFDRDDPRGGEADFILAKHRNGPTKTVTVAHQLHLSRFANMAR
Put plainly: DnaB intein splicing inhibitors, dose response, biochemical, cell-free fluorescence (AID 449749). It is filed as functional.

The target of data set [2] is T2, Protein RecA (Mycobacterium tuberculosis, UniProt P9WHJ3).
T2 sequence (P9WHJ3 whole entry): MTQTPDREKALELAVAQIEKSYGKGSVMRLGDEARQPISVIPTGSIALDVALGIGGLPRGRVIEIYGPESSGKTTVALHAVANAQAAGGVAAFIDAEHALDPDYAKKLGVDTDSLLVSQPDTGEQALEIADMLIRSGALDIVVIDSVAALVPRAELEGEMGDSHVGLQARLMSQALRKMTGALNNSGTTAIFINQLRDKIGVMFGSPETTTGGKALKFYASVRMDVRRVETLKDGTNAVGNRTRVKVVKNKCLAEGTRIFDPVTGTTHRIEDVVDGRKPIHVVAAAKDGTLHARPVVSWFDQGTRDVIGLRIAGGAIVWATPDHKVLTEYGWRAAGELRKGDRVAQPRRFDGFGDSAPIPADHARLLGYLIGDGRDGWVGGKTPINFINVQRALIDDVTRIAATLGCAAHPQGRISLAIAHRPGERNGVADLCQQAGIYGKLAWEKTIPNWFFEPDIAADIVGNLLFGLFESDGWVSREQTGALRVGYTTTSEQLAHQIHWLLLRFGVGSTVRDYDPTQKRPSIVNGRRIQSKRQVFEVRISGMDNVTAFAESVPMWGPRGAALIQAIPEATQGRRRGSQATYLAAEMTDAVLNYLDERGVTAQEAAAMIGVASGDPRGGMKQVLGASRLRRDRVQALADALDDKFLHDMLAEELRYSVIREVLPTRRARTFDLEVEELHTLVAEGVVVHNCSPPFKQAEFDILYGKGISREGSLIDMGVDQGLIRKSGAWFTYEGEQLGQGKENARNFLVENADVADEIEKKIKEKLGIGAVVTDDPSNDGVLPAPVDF
Briefly: Fluorescence Cell-Free Homogeneous Dose Retest to Identify Inhibitors of RecA-Intein Splicing Activity. [Related pubchem assays (depositor defined):AID2097, AID2223, AID489010, AID492950]. It is filed as functional.

Data set [3] has as its target Paired box protein Pax-8 (Homo sapiens, UniProt Q06710). Put plainly: inhibitors of PAX8-driven TPO luciferase reporter, dose response, RMG-I cells, cherry-pick (AID 687027).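 Note: luciferase reporter driven by Pax8 target thyroperoxidase promoter measured by SteadyGlo luminescence.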 In kind it is functional, cell-based. Background: Reporter assays use an easily measured gene product as a stand-in for the process of interest.
The target in data set [4] is T3, Cytochrome P450 1A2 (Homo sapiens, UniProt P05177).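 Note: PubChem cytochrome P450 panel assay, CYP1A2 panel member.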
T3 sequence (P05177 whole entry): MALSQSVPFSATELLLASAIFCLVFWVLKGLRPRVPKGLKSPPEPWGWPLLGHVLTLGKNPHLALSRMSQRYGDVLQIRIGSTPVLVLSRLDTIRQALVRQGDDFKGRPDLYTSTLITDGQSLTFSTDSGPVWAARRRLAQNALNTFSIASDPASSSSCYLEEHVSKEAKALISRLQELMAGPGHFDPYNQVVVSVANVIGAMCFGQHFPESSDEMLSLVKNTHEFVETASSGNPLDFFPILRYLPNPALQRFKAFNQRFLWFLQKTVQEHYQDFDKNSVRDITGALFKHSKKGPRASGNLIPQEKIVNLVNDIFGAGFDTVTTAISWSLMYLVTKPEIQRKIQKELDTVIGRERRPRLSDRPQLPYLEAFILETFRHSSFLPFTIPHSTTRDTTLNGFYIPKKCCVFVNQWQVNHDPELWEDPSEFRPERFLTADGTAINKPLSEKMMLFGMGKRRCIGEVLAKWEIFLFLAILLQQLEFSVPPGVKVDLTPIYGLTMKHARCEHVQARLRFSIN

Data set [5] can be described thus: Luminescence Cell-Based Dose Retest to Confirm Inhibitors of Cancer Stem Cells. [Related pubchem assays (depositor defined):AID2717, AID2721]. To be noted: Homo sapiens. In kind it is functional.
Data set [6] concerns the target Cytochrome P450 2C9 (Homo sapiens, UniProt P11712).
In data set [7] the target is Cytochrome P450 3A4 (Homo sapiens, UniProt P08684).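 Note: CYP3A4 tested as one member of a cytochrome P450 panel screen.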
Cytochrome P450 3A4, sequence (P08684 whole entry): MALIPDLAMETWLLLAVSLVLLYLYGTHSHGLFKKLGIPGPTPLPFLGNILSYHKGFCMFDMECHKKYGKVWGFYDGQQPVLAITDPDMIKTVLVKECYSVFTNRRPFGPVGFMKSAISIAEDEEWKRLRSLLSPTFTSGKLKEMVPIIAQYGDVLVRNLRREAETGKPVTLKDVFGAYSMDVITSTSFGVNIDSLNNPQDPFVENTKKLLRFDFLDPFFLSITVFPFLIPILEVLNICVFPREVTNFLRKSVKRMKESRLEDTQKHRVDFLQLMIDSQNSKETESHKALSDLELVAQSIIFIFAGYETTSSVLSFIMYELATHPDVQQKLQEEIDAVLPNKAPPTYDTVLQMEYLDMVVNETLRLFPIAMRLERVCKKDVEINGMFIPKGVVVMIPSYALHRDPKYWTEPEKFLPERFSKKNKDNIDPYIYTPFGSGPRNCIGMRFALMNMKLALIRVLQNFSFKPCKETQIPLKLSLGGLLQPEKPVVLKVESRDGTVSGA
For data set [8], the target named is Cytochrome P450 2C19 (Homo sapiens, UniProt P33261). Put plainly: Cytochrome panel assay with activity outcomes. Panel member name: p450-cyp2c19 Compounds with AC50 equal or less than 10 uM are considered active. In kind it is functional.
Cytochrome P450 2C19, sequence (P33261 whole entry): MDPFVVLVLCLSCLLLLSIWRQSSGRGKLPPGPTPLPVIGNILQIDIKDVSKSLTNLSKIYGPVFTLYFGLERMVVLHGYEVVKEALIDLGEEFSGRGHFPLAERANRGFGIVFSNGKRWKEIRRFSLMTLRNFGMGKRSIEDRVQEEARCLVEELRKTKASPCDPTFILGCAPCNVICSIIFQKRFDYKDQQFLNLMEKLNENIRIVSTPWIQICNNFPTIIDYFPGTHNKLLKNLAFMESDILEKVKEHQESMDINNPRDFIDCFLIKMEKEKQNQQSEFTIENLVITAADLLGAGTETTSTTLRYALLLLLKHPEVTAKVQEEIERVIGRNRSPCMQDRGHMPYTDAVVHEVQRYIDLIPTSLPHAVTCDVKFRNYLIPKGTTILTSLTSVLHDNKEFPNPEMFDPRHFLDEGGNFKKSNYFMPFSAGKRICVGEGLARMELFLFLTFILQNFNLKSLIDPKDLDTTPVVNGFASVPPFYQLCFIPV

Structures are written as SMILES. Activity calls are given as the source filed them.

One may read the AC50 as the midpoint of the concentration-response curve, whichever way the signal moves. A word on the EC50: it is the concentration giving half of the maximal effect.

Paired box protein Pax-8, sequence (Q06710 whole entry): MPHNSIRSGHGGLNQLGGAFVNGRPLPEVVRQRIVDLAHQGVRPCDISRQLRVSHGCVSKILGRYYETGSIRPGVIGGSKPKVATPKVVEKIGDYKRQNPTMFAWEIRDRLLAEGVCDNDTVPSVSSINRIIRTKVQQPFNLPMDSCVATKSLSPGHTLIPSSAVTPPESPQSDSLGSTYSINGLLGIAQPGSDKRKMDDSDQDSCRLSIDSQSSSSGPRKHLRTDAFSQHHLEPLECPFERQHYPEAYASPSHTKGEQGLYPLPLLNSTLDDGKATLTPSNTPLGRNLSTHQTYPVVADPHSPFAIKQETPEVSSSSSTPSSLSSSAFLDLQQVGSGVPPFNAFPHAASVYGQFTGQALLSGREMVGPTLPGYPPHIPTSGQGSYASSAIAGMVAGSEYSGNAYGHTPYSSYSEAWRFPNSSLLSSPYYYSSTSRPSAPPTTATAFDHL
Cytochrome P450 2C9, sequence (P11712 whole entry): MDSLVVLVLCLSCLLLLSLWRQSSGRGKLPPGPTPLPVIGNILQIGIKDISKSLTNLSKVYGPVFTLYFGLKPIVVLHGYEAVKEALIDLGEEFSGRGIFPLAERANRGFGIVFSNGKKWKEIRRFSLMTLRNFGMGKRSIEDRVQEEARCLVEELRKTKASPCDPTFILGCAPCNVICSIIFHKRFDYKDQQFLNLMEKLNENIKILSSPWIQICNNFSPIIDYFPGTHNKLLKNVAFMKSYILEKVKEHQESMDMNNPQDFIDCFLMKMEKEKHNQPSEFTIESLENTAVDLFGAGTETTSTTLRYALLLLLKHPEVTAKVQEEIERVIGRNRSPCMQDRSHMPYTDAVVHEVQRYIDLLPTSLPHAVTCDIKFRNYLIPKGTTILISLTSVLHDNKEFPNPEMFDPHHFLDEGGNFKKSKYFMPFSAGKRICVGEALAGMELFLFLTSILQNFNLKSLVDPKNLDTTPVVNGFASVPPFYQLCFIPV

For `COc1cc(C(c2c(C)n[nH]c2O)c2c(C)n[nH]c2O)cc(Br)c1OC`, the AC50 in data set [1] is 0.756 µM (active). The EC50 in data set [2] is 0.274 µM (active).
Turning to `O=[N+]([O-])c1ccc(N/N=C/c2sc(N3CCOCC3)nc2-c2ccccc2)c(S(=O)(=O)Nc2ccc(Cl)cc2)c1`, the half-maximal activity concentration (AC50) in data set [3] was 1.99 µM (active).
Same read-out and setting: the value for `Cc1ccc(S(=O)(=O)N2CCCCC2)cc1NC(=O)Cc1c[nH]c2ccccc12` was 19.5 µM (active).
With `COCC(=O)O[C@]1(CCN(C)CCCc2nc3ccccc3[nH]2)CCc2cc(F)ccc2[C@@H]1C(C)C` [MIBEFRADIL], the AC50 in data set [4] is 31.6 µM (inconclusive).
Regarding `COCCN(C(=O)C(C)C)c1nnc(-c2ccc(C(C)(C)C)cc2)s1`, the concentration at half-maximal activity (AC50) in data set [5] is 2.42 µM (active).
Take `O=C(O)c1cc2cc(OCc3ccccc3)ccc2[nH]1`: the AC50 in data set [4] is 6.31 µM (inconclusive); in data set [6], 25.1 µM (inconclusive).
In the same order, the values of `CCC(C)(C)n1nnnc1C(c1cc2cc3c(cc2nc1O)OCO3)N1CCCCC1` (configuration not stated) are 17.8 µM (inconclusive) and 0.02 µM (inconclusive).
For the compound `CCC(=O)OCc1c(C(F)(F)F)nn(C)c1Sc1ccc(F)cc1`, the AC50 in data set [4] was 12.6 µM (inconclusive); in data set [7] it was 25.1 µM (inconclusive).
`CCC#CCOCC(=S)Nc1ccccc1`: in data set [4], the AC50 is 15.8 µM (inconclusive).
Consider `COc1ccc(Br)cc1[C@H]1[C@H]2C=CC[C@@H](C)[C@@H]2C(=O)N1Cc1ccccc1`, for which the AC50 in data set [1] is 2.46 µM (active). The EC50 in data set [2] is 163 µM (active).
For `CC1(C)Cc2ccccc2C(/C=C(\O)c2ccccc2)=N1`, the AC50 in data set [5] is 1.97 µM (active).
On to `CCOC(=O)c1nc(O)c2ccccc2c1O`, for which the AC50 in data set [1] is > 380 µM (inactive). The EC50 in data set [2] was 5.23 µM (active).
As for `COc1ccc(NC(=O)Nc2ccc3c(c2)C(=O)N([C@@H](C)CO)C[C@@H](C)[C@@H](CN(C)Cc2ccc(C(F)(F)F)cc2)O3)cc1`, the AC50 in data set [3] is 13.9 µM (active).
Consider `CCN(CC)C[C@@H]1CCCCN1CC(=O)N1c2ccccc2C(=O)Nc2cccnc21`, for which the AC50 in data set [4] is 31.6 µM (inconclusive).
Same read-out and setting: the value for `COc1cccc(Nc2ncc3nc(-c4ccccc4)c(=O)n(Cc4cccs4)c3n2)c1` was 20 µM (inconclusive).
As to `CCN(C(=O)Cn1c(=O)oc2ccccc21)c1cccc(C(F)(F)F)c1`, the AC50 in data set [4] was 39.8 µM (inconclusive); in data set [7] it was 7.08 µM (inconclusive).
On to `N[C@@H](COP(=O)(O)O)C(=O)O` [DEXFOSFOSERINE], for which the AC50 entry in data set [8] was “inconclusive”; in data set [4], 25.1 µM (inconclusive); in data set [7], 0.794 µM (inconclusive).
For the compound `CN1C(=O)COc2c(C(=O)N[C@@H]3CN4CCC3CC4)cc(Cl)cc21`, the AC50 in data set [4] is 39.8 µM (inconclusive).
For the compound `COC(=O)[C@@]12C[C@@H](CC(=O)N3CCN(C(=O)c4ccco4)CC3)C(=O)N(Cc3ccccc3)C1=CCC(C)(C)C2`, in data set [3], the AC50 is 1.81 µM (active).
As to `CC(C)c1n[nH]c2c1C(c1cccc(OC(=O)N3CCOCC3)c1)C(C#N)=C(N)O2` (configuration not stated), the AC50 in data set [1] was 33.4 µM (active). Also, the EC50 in data set [2] was 5.8 µM (active).
In the same order, the values of `Cc1n[nH]c2c1C(c1ccc(Cl)cc1)C(C#N)=C(N)O2` (configuration not stated) are 9.8 µM (active) and 6.1 µM (active).

(Values after ChEMBL document CHEMBL1201862, “PubChem BioAssay data set” (2004).)
